Experimental data published in US20060035901A1, “Methotrexate derivatives useful for treating cancer and arthritis” (Serenex, Inc., priority 2004, published 2006).
pIC50: −log10 of the molar value.

Key:
[1] = biological target: B-Raf (Homo sapiens, UniProt P15056); assay: Elution of B-Raf from ATP-Sepharose column by compound (Proteome Mining), IC50 estimate; type: binding; conditions: estimated from percent of protein eluted from ATP-Sepharose column, gel densitometry; read-out: Approximate IC50 for B-Raf
B-Raf, sequence (P15056 whole entry, species assumed): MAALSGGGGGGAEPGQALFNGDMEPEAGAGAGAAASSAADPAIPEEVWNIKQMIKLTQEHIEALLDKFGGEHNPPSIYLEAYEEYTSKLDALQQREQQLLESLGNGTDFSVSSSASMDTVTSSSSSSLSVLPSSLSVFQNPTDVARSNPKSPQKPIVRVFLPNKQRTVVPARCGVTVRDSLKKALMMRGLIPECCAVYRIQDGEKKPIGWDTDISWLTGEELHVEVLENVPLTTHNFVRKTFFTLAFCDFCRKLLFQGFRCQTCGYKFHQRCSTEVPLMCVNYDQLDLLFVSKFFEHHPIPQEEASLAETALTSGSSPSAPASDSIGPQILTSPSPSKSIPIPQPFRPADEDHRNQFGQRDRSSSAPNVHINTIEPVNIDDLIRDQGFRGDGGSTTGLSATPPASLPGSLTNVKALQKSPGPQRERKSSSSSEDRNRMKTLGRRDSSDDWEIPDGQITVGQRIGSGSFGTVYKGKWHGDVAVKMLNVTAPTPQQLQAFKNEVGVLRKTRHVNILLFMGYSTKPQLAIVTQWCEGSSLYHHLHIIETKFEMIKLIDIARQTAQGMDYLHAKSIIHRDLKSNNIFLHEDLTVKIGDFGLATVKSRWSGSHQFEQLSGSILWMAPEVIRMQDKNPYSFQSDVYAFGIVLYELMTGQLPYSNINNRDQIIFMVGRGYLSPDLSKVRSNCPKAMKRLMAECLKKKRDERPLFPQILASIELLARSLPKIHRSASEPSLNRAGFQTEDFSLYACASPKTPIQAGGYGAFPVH
Procedure: A proteome containing a known quantity of Her2, EGFR, and B-Raf was run over an ATP-Sepharose™ column in order to bind all purine-binding proteins. See, WO 00/63694 and U.S. Provisional Application No. 60/453,697 filed Jan. 22, 2003, each of which is incorporated by reference in its entirety. The ATP-Sepharose™ was washed several times, and then eluted with the compound of Formula III. The experiment was run in duplicate at concentrations of 20 μM, 100 μM, and 500 μM of the compound of Formula III. The eluted fractions were run on a 1-dimensional SDS polyacrylamide gel. Gels were stained with a fluorescent stain such as sypro ruby (a highly sensitive fluorescent protein stain that can readily detect less than 1 fmol of total protein, i.e., less than 0.04 ng for a 40 kDa protein). The gels were imaged using a standard flat bed gel imager and the amount of protein estimated by densiometry. The percent of protein eluted from the column at each concentration was determined and IC50 values were calculated from these estimates. Where necessary, the eluted proteins were cut out of the gel, and identified using mass spectral techniques.
These steps were repeated with each of the compounds of Formulas IV-X, MTX, and the c series derivative.

[2] = biological target: T1, propionyl-CoA carboxylase subunit alpha (PCCA) (Sus scrofa, UniProt P0DTA4); assay: Elution of PCCA from ATP-Sepharose column loaded with porcine liver proteome, IC50 estimate; type: binding; conditions: estimated from percent of protein eluted from ATP-Sepharose column, read-out: Approximate IC50 for PCCA
T1 construct: a porcine liver proteome was run over an ATP-Sepharose™ column; from tissue; host or cells: porcine liver
T1 sequence (P0DTA4 53-730): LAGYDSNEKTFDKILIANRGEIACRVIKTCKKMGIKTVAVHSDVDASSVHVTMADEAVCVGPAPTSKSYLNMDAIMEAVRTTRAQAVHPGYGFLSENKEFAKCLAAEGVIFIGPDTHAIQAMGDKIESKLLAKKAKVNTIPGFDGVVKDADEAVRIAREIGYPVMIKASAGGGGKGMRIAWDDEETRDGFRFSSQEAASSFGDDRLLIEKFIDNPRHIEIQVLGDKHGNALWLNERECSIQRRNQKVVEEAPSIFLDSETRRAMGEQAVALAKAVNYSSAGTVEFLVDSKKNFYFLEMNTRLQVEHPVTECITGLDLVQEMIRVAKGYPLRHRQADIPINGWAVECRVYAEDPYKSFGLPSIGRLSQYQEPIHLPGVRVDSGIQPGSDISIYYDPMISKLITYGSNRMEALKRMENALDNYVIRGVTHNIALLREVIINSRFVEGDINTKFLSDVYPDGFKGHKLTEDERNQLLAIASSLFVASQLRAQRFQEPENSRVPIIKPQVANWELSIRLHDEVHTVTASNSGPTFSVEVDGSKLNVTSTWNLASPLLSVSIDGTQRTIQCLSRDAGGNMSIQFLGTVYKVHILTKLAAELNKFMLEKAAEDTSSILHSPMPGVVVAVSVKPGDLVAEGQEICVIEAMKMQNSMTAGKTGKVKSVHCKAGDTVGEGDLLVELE
T1 sequence (P79384 29-539 partner): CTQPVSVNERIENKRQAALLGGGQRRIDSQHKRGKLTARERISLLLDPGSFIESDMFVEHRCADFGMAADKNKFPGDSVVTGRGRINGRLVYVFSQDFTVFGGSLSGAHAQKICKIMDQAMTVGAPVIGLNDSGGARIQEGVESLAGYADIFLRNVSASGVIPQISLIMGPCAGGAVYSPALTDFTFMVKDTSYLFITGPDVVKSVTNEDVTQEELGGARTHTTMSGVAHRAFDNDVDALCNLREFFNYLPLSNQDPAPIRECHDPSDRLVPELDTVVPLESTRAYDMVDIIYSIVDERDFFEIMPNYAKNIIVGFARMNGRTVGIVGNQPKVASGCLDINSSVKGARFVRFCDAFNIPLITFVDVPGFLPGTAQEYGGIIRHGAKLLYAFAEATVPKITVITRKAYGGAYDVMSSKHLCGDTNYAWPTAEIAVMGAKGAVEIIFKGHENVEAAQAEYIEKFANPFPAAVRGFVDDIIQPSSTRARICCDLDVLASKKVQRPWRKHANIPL
Procedure: Similar experiments were carried out to compare the IC50 values for PYC, PCCA, and PCCB. In these trials, a porcine liver proteome was run over an ATP-Sepharose™ column to bind all purine-binding proteins. The ATP-Sepharose™ column was washed several times, and then eluted with the compound of Formula III at concentrations of 1 μM, 5 μM, 10 μM, 50 μM, 100 μM, and 500 μM to identify proteins that bound to this compound.
Gels were stained with a fluorescent stain such as sypro ruby (a highly sensitive fluorescent protein stain that can readily detect less than 1 fmol of total protein, i.e., less than 0.04 ng for a 40 kDa protein). The gels were imaged using a standard flat bed gel imager and the amount of protein estimated by densiometry. The percent of protein eluted from the column at each concentration was determined and IC50 values were calculated from these estimates. Where necessary, the eluted proteins were cut out of the gel, and identified using mass spectral techniques.
The values obtained were then compared to those for DHFR.

[3] = system: OVCAR8 (ovarian; adenocarcinoma); assay: Cell proliferation assay (WST-1), OVCAR8; type: cell-based; conditions: OVCAR8 cells
Procedure: (§1) A panel of cancer cell lines was obtained from the DCTP Tumor Repository, National Cancer Institute (Fredrick, Md.) or ATCC (Rockville, Md.). Cell cultures were maintained in Hyclone RPMI 1640 medium (Logan, Utah) supplemented with 10% fetal bovine serum and 20 mM HEPES buffer, pH 7.2, at 37° C., 5% CO2 atmosphere. Cultures were maintained at sub-confluent densities.
(§2) For proliferation assays, cells were seeded with the appropriate medium into 96 well plates at 1,000-2,000 cells per well, depending on cell line, and were incubated overnight. The following day, an amount of test compound, DMSO solution (negative control), or Actinomycin D (positive control) was added to the appropriate wells as 10× concentrated stocks prepared in phosphate buffered saline. The cell plates were then incubated for an additional 2-5 days, dependent on cell line, to allow for proliferation to occur. […] Optical density was determined for each well a 450 nm using a Tecan GniosPro plate reader (RTP, NC). The percentage of cell growth was then determined by comparing the cell growth in the presence of test compounds to the DMSO vehicle control treated cells (100% growth) and […] Actinomycin D treated cells (0% growth).

[4] = system: SK-Mel 5 (skin; melanoma); assay: Cell proliferation assay (WST-1), SK-Mel 5; type: cell-based; conditions: SK-Mel 5 cells
Procedure: as §1, §2

[5] = system: T47D (mammary; carcinoma); assay: Cell proliferation assay (WST-1), T47D; type: cell-based; conditions: T47D cells
Procedure: as §1, §2

SMILES	pIC50 [1]	pIC50 [2]	Fold Improvement in Cell Proliferation IC50 Compared to MTX [3] [fold]	Fold Improvement in Cell Proliferation IC50 Compared to MTX [4] [fold]	Fold Improvement in Cell Proliferation IC50 Compared to MTX [5] [fold]
C#CCN(Cc1cnc2nc(N)nc(N)c2n1)c1ccc(C(=O)NC(CCC(=O)O)C(=O)O)cc1C (stereo not drawn) [Formula III, 2-{4-[(2,4-diamino-pteridin-6-ylmethyl)-prop-2-ynyl-amino]-3-methyl-benzoylamino}-pentanedioic acid]	5.30	5.70	>2	>4	3
C#CCN(Cc1cnc2nc(N)nc(N)c2n1)c1ccc(C(=O)NC(CCC(=O)O)C(=O)O)cc1OC(F)(F)F (stereo not drawn) [Formula IX]	–	5.00	–	–	–
C#CCN(Cc1cnc2nc(N)nc(N)c2n1)c1ccc(C(=O)NC(CCC(=O)O)C(=O)O)cc1OC (stereo not drawn) [Formula VIII]	5.30	5.70	–	–	–
Cc1cc(C(=O)NC(CCC(=O)O)C(=O)O)ccc1N(Cc1ccoc1)Cc1cnc2nc(N)nc(N)c2n1 (stereo not drawn) [Formula VII]	–	5.70	–	–	–
